According to US20250082664A1, “NUCLEOSIDE FORMULATION” (PHION THERAPEUTICS LTD, priority 2021, published 2025):

Legend:
[1] = Ioka T, et al. 2013; cited from earlier work
BxPC-3 cells = assay: Cell cycle analysis (propidium iodide, FACS); format: cell-based; settings: 48 hours following treatment, 2 μM (1 μg) for 5 h, manual formulations
Procedure: 1.5×10^5 BxPC-3 cells were plated in 6-well plates (Nunc, UK) and left to adhere for 24 h. Cells were transferred to serum free media for 24-h, to ensure synchronisation of cells. Subsequently, cells were incubated with RALA/dFdCTP nanoparticles at a concentration of 2 μM (1 μg) for 5 h before removal of treatment media and the addition of fresh complete media. 48 h following treatment, cells were trypsinsed and fixed in ice-cold 70% ethanol for 1 hour at 4° C. Cells were washed twice in Phosphate Buffered Saline (PBS) for 5 min, before resuspension in 500 μL PBS and the addition of 50 μL of 100 μg/ml RNase (Invitrogen, UK). 10 minutes prior to running samples on fluorescence-activated cell sorting (FACS), 10 μl of a 100 μg/ml stock of propidium iodide (PI) was added. Controls include: untreated; dCTP (negative control); RALA/dCTP (RALA control); dFdCTP (drug control); and gemcitabine (comparator control).
A cell cycle analysis following treatment with RALA/dFdCTP was undertaken. If dFdCTP had been successfully delivered to cells, it would be incorporated during DNA polymerase, preventing DNA chain elongation. This would ultimately prevent cells from actively proliferating. This means that during cell cycling, the cycle will be arrested at the S-phase. Therefore, if there are a higher percentage of the cells in the (G0/G1+−S) phases than compared to the G2 phase, it is an indicator that dFdCTP has affected the cell cycle.

red blood cell (RBC) = assay: Haemolysis assay; format: cell-based; settings: ovine RBC, equivalent of 10-30 μg dFdCTP, 1 h at 37° C., isotonic trehalose solution
Procedure: Defibrinated ovine whole blood (5 ml, TCS Biosciences Ltd, UK) was centrifuged at 500 g in citrate-phosphate buffer (15 ml, 0.1 M citric acid, C6HsO7, and 0.2 M disodium hydrogen phosphate, Na2HPO4) for 20 min to separate erythrocytes. The erythrocytes were subsequently washed three times with 20 mL of citrate-phosphate buffer by centrifugation and re-suspended in citrate-phosphate buffer solution at a concentration of 1×10^8 cells/mL. A Countess II automated cell counter (ThermoFisher, UK) was used to count erythrocytes by first diluting the erythrocyte suspension 1:10,000 in buffer. Subsequently, isotonic solutions (of osmolality in the range 290-310 mOsmol/kg) of RALA/dFdCTP (MR2.0) nanoparticles mixed with trehalose, or dFdCTP and trehalose was added to the erythrocyte suspension, with the equivalent of 10-30 μg dFdCTP added, and the solution incubated for 1 h at 37° C. Following incubation, the erythrocyte suspensions were centrifuged for 90 s at 400 g to form a cell pellet. Absorbance of the supernatant was measured via a Nanodrop 2000c UV-Vis spectrophotometer (Thermo Scientific, UK) at 541 nm. 1% Triton X-100 was used as a positive control representing 100% haemolysis; and citrate-phosphate buffer at pH 7.4 was used as a negative control.

SMILES	overall clinical response rate [1] [%]	Cells in (G0/G1 + S) Phase (BxPC-3 cells) [%]	haemolysis (red blood cell (RBC)) [%]
Nc1ccn([C@@H]2O[C@H](CO)[C@@H](O)C2(F)F)c(=O)n1 [Gemcitabine, 2′,2′-difluoro-2′-deoxycytidine]	6	60.2	–
Nc1ccn([C@H]2C[C@H](O)[C@@H](COP(=O)(O)OP(=O)(O)OP(=O)(O)O)O2)c(=O)n1 [dCTP, deoxycytidine triphosphate]	–	49.9	–
Nc1ccn([C@@H]2O[C@H](COP(=O)(O)OP(=O)(O)OP(=O)(O)O)[C@@H](O)C2(F)F)c(=O)n1 [dFdCTP, 2′,2′-difluorodeoxycytidine 5′-triphosphate]	–	66.4	> 20
